The values below come from patent publication US11471465B2 (priority 2017, dated 2022).

The procedure of data set [1]: The effect of varying amounts of potassium carbonate (K2CO3) and sodium bicarbonate (NaHCO3) on the pH of acidic media was tested. The acidic media was chosen to simulate gastric conditions. K2CO3 or NaHCO3 was added to 50 mL of a 0.01 N HCl solution (pH 2). The pH of the solution was measured after addition of the K2CO3 or NaHCO3. Deionized water (240 mL) was then added to the mixture and pH was measured again.

The nature of data set [2]: Dissolution testing of the monolayer meloxicam/rizatriptan tablet in 0.01 N HCl, Example 4. Type of data set: physicochemical. As to conditions: monolayer tablet of Example 4, 0.01 N HCl, 75 RPM, 37° C.
Procedure: Dissolution testing of the tablets in acidic medium (chosen to simulate gastric conditions) was performed by placing the tablets in a 0.01 N HCl solution, at an agitation rate of 75 RPM, and vessel temperature of approximately 37° C.
In data set [3] the test system is moderate and severe migraine. The experiment in a line: Phase 3 placebo- and active-controlled trial (MOMENTUM), patients with inadequate response to prior acute treatments, Example 11.
The conditions of data set [4]: cited from earlier work.
[5] abbreviates: from 2 hours to 24 hours after dosing.

Read-outs that look alike come from different tables or passages of the source.

For `O=C([O-])O.[Na+]` [NaHCO3, sodium bicarbonate], the pH was 5.41 in data set [1] (200 mg NaHCO3, 0.01 N HCl + 240 mL water); 5.28 in data set [1] (200 mg NaHCO3 added to 50 mL 0.01 N HCl); 5.89 in data set [1] (300 mg NaHCO3, 0.01 N HCl + 240 mL water); 5.90 in data set [1] (300 mg NaHCO3 added to 50 mL 0.01 N HCl); 6.11 in data set [1] (400 mg NaHCO3, 0.01 N HCl + 240 mL water); 6.44 in data set [1] (400 mg NaHCO3 added to 50 mL 0.01 N HCl). Further, the pH worked out at 6.46 in data set [1] (450 mg NaHCO3, 0.01 N HCl + 240 mL water); 6.86 in data set [1] (450 mg NaHCO3 added to 50 mL 0.01 N HCl); 8.33 in data set [1] (500 mg NaHCO3, 0.01 N HCl + 240 mL water); 8.23 in data set [1] (500 mg NaHCO3 added to 50 mL 0.01 N HCl); 8.54 in data set [1] (750 mg NaHCO3, 0.01 N HCl + 240 mL water); 8.30 in data set [1] (750 mg NaHCO3 added to 50 mL 0.01 N HCl). In addition, the pH in data set [1] (1000 mg NaHCO3, 0.01 N HCl + 240 mL water) is 8.60; in data set [1] (1000 mg NaHCO3 added to 50 mL 0.01 N HCl) it was 8.36.
On to Rizatriptan, for which the percent dissolved in data set [2] (0 min) is 0%. In addition, the percent dissolved in data set [2] (15 min) is 89%. The compound further came in with a percent dissolved in data set [2] (30 min) of 102%. Also, in data set [2] (45 min), the percent dissolved was found to be 103%. Also, the percent dissolved in data set [2] (60 min) stood at 103%. The compound also came in with a percent dissolved in data set [2] (90 min) of 103%. In data set [2] (120 min), this compound registered a percent dissolved of 103%. Further, the “patients experiencing relapse of pain” value in data set [3] (48-hour period after dosing) was found to be 45.2%. For the same compound, the “probability of experiencing pain relief” value in data set [3] (24 hours after taking) is “approximately 60%”. Besides, the “proportion of patients experiencing pain relief” value in data set [3] ([…] after dosing) is 52.5%. In data set [3] (setting [5]), the “percentage of patients achieving sustained pain freedom” value was 11.2% and the “percentage of patients experiencing sustained pain relief” value is 43.9%. Also, in data set [3] (from 2 hours to 48 hours), the “percentage of patients experiencing sustained pain freedom” value turned out to be 8.8% and the “percentage of patients experiencing sustained pain relief” value is on record as 36.5%. The “median time to pain relief” value in data set [3] (human, in vivo) was found to be 4 h. Further, in data set [3] (single dose), the “Any Treatment-Emergent Adverse Event, % of subjects” value is “(15.4%)”; the “Any Treatment-Emergent Adverse Event, number of subjects” value came out at 67; the “Dizziness, % of subjects” value is “(2.1%)”; the “Dizziness, number of subjects” value is 9. Also, in data set [3] (single dose), the “Nausea, % of subjects” value is listed as “(4.8%)”; the “Nausea, number of subjects” value was found to be 21; the “Somnolence, % of subjects” value is reported as “(2.1%)”; the “Somnolence, number of subjects” value is reported as 9. In addition, the “patients who used rescue medication” value in data set [3] (through hour 24 post dose) was 34.7%.
On to `O=C([O-])[O-].[K+].[K+]` [Tablet K2CO3, potassium carbonate], for which the pH was found to be 2.84 in data set [1] (25 mg K2CO3 added to 50 mL 0.01 N HCl); 6.29 in data set [1] (35 mg K2CO3 added to 50 mL 0.01 N HCl); 8.05 in data set [1] (45 mg K2CO3 added to 50 mL 0.01 N HCl); 8.29 in data set [1] (50 mg K2CO3 added to 50 mL 0.01 N HCl); 9.43 in data set [1] (100 mg K2CO3 added to 50 mL 0.01 N HCl); 10.27 in data set [1] (200 mg K2CO3, 0.01 N HCl + 240 mL water). Also, the pH in data set [1] (200 mg K2CO3 added to 50 mL 0.01 N HCl) is reported as 10.14; in data set [1] (300 mg K2CO3, 0.01 N HCl + 240 mL water), 10.46; in data set [1] (300 mg K2CO3 added to 50 mL 0.01 N HCl), 10.39; in data set [1] (400 mg K2CO3, 0.01 N HCl + 240 mL water) it was 10.57; in data set [1] (400 mg K2CO3 added to 50 mL 0.01 N HCl) it was 10.55; in data set [1] (450 mg K2CO3, 0.01 N HCl + 240 mL water), 10.63. For the same compound, in data set [1] (450 mg K2CO3 added to 50 mL 0.01 N HCl), the pH was 10.58.
For `Cc1cnc(NC(=O)C2=C(O)c3ccccc3S(=O)(=O)N2C)s1` [Meloxicam], the percent dissolved in data set [2] (0 min) is 0%; in data set [2] (15 min), 79%; in data set [2] (30 min) it was 92%; in data set [2] (45 min), 93%; in data set [2] (60 min) it was 93%; in data set [2] (90 min) it was 93%. The percent dissolved in data set [2] (120 min) turned out to be 94%. In data set [4] (15 mg IV and intramuscular doses, human beings), the AUC0-24 of meloxicam entry is recorded as “about 27 μg·hr/mL”. The figures for the “reported Tmax” value in data set [4] (intramuscular), in data set [4] (intravenous bolus) and in data set [4] (intravenous infusion) were 60 to 84 min, approximately 3 min and “approximately 30 minutes”, respectively.
